Experimental findings from US4310590A (priority 1979, dated 1982) are described below.

The term MIC denotes the least concentration at which growth counts as inhibited.

The subject of test [1] is Puccinia graminis f. sp. tritici. The test can be described thus: whole plant or invertebrate. It is filed as in vivo, Puccinia graminis f. sp. tritici race 15B-2. The note with it: for Disease Control Level, WSR: 150 ppm, wheat seedlings.
For another test, the system named is Botrytis cinerea. The experiment in a line: whole plant or invertebrate. The note with it: for Disease Control Level, BOT: 150 ppm; for pest or weed control at 38 ppm / pest or weed control at 75 ppm / pest or weed control at 300 ppm: Botrytis cinerea, read-out: Disease Control Level, BOT. It is filed as in vivo.
In the next test the test system is Plasmopora viticola. The experiment in a line: whole plant or invertebrate. It is filed as in vivo. The note with it: for pest or weed control at 38 ppm / pest or weed control at 75 ppm / pest or weed control at 300 ppm: read-out: Disease Control Level, GDM; for Disease Control Level, GDM: 150 ppm.
The test system of the next test is Helminthosporium teres. The experiment in a line: whole plant or invertebrate. Format: in vivo. The note with it: Pyrenophora teres, in Hordeum vulgare, read-out: Disease Control Level, BH.
In the next test the test system is Staphylococcus aureus. The experiment in a line: Serial Dilution Test (Broth Titer Test), antibacterial, Staphylococcus aureus. The note with it: Staphylococcus aureus, read-out: SDT, MIC. Format: cell-based. As for the experimental part:
(§1) Antibacterial and antifungal activity were evaluated by the Serial Dilution Test (Broth Titer Test) wherein a series of broths containing varying dilutions of a test compound and an organism are halved starting with 1:1,000. The values shown represent the maximum dilution in parts per million at which the compound under evaluation renders complete control of the organism. Pseudomonas aeruginosa (P), Staphylococcus aureus (S), and Escherichia coli (E) were the bacterial organisms employed in this test, and the fungi employed were Aspergillus niger (A) and Rhizopus stolonifer (R).
(§2) ^a In vitro serial dilution test (SDT), minimum inhibitory
(§3) concentrations (MIC) against E = E. coli, P = Ps. aeruginosa, S =
(§4) Staphylococcus aureus, A = A. niger, and R = Rhizopus stolonifer are give
(§5) in parts per million of a biocide.

The test system of another test is Erysiphe polygoni. The test can be described thus: whole plant or invertebrate. Format: in vivo. The note with it: read-out: Disease Control Level, BPM.
Another test deals with Piricularia oryzae. The test can be described thus: whole plant or invertebrate. It is filed as in vivo. The note with it: for Disease Control Level, RB: 150 ppm.
In a further test the test system is Phytophthora infestans. The test can be described thus: whole plant or invertebrate. Format: in vivo.
Another test deals with Ps. aeruginosa. The experiment in a line: Serial Dilution Test (Broth Titer Test), antibacterial, Ps. aeruginosa. It is filed as cell-based, Pseudomonas aeruginosa. The note with it: Pseudomonas aeruginosa, read-out: SDT, MIC. As for the experimental part: as §1, §2, §3, §4, §5
The next test relates to A. niger. The experiment in a line: Serial Dilution Test (Broth Titer Test), antifungal, A. niger. Format: cell-based, Aspergillus niger. The settings on record: Aspergillus niger, in vitro serial dilution test, read-out: SDT, MIC. As for the experimental part:
as §1, §2, §3, §4, §5

The test system of the next test is E. coli. The experiment in a line: Serial Dilution Test (Broth Titer Test), antibacterial, E. coli. The settings on record: Escherichia coli, read-out: SDT, MIC. Format: cell-based, Escherichia coli. Here is the method:
as §1, §2, §3, §4, §5

The mark [2] stands for this setting: Puccinia graminis, read-out: Disease Control Level, WSR.
Where [3] appears, read: Pyricularia oryzae, read-out: Disease Control Level, RB.
The mark [4] stands for this setting: Phytophthora infestans, in Solanum lycopersicum, read-out: Disease Control Level, TLB.

Converted amounts (≈) assume the structure as drawn.

On to `CN(C)C(=S)Sc1cc(=O)n(Cc2ccccc2)s1` [Example 1, 2-Benzyl-5-(N,N-dimethylthiocarbamoyl)thio-4-isothiazolin-3-one], for which, in test [1], the “Disease Control Level, WSR” value is reported as “C/C”. Also, the pest or weed control at 38 ppm in [1] (setting [2]) was 50%; in the test on Botrytis cinerea it was 70 to 89%; in the test on Plasmopora viticola, 50 to 69%; with Helminthosporium teres (38 ppm) it was 50%; in the test on Piricularia oryzae (setting [3]), 97 to 100%. The pest or weed control at 75 ppm was 50% in test [1] (setting [2]); 70 to 89% in the test on Botrytis cinerea; 70 to 89% in the test on Plasmopora viticola; 50% in the test on Helminthosporium teres (75 ppm); 97 to 100% with Piricularia oryzae (setting [3]). Moreover, the pest or weed control at 300 ppm in [1] (setting [2]) was 90 to 96%; with Botrytis cinerea it was 90 to 96%; in the test on Plasmopora viticola, 90 to 96%; with Helminthosporium teres it was 97 to 100%; in the test with Erysiphe polygoni, 50%; with Phytophthora infestans (setting [4]), 50%. Moreover, the “Disease Control Level, BOT” value in the test with Botrytis cinerea was “B/B”. In addition, in the test with Plasmopora viticola, the “Disease Control Level, GDM” value is given as “C/C”. Moreover, the pest or weed control at 150 ppm with Helminthosporium teres (150 ppm) was 50%. For the same compound, the MIC with Staphylococcus aureus is > 500 µg/mL. Further, in the test on Piricularia oryzae, the “Disease Control Level, RB” value is reported as “A/E”.
As for `Cc1c(SC(=S)N(C)C)sn(-c2ccccc2)c1=O` [Example 2, 5-(N,N-Dimethylthiocarbamoyl)thio-4-methyl-2-phenyl-4-isothiazolin-3-one], the pest or weed control at 300 ppm was 70 to 89% in [1] (setting [2]); 90 to 96% in the test on Botrytis cinerea; 50% with Plasmopora viticola; 50% with Helminthosporium teres; 50% in the test with Erysiphe polygoni; 50% in the test on Phytophthora infestans (setting [4]). The “Disease Control Level, BOT” value in the test with Botrytis cinerea is recorded as “B/C”. The pest or weed control at 38 ppm in the test on Botrytis cinerea is 70 to 89%; in the test on Piricularia oryzae (setting [3]), 90 to 96%. Moreover, the pest or weed control at 75 ppm in the test with Botrytis cinerea and in the test on Piricularia oryzae (setting [3]) was 90 to 96% in each case. Also, the MIC in the test on Ps. aeruginosa was > 500 µg/mL; in the test on A. niger it was 500 µg/mL (≈ 1610 µM); with E. coli, 500 µg/mL (≈ 1610 µM). Besides, the “Disease Control Level, RB” value with Piricularia oryzae is reported as “A/E”.
For the compound `CCCCCCCCn1sc(SC(=S)N(C)C)cc1=O` [Example 6], the pest or weed control at 300 ppm in [1] (setting [2]) is 97 to 100%; with Botrytis cinerea it was 50%; with Plasmopora viticola, 50%; in the test on Helminthosporium teres it was 50%; in the test with Erysiphe polygoni, 50%.
For `Cn1sc(SC(=S)N2CCCC2)cc1=O` [Example 13, 2-Methyl-5-[N,N-tetramethylenethiocarbamoyl]thio-4-isothiazolin-3-one], in test [1], the “Disease Control Level, WSR” value is on record as “C/E”. The pest or weed control at 38 ppm is 70 to 89% in [1] (setting [2]); 70 to 89% with Botrytis cinerea; 97 to 100% with Plasmopora viticola; 90 to 96% with Piricularia oryzae (setting [3]); 50% with Phytophthora infestans (setting [4]). Moreover, the pest or weed control at 75 ppm in test [1] (setting [2]) lay in the range of 70 to 89%; in the test on Botrytis cinerea it was 70 to 89%; in the test with Plasmopora viticola it was 97 to 100%; in the test with Piricularia oryzae (setting [3]) it was 90 to 96%; in the test with Phytophthora infestans (setting [4]), 90 to 96%. Moreover, the pest or weed control at 300 ppm in test [1] (setting [2]) was 90 to 96%; in the test with Botrytis cinerea, 97 to 100%; with Plasmopora viticola, 97 to 100%; in the test on Helminthosporium teres, 50%; with Erysiphe polygoni it was 50%; with Piricularia oryzae (setting [3]), 90 to 96%. Moreover, the pest or weed control at 300 ppm with Phytophthora infestans (setting [4]) was 90 to 96%. For the same compound, the “Disease Control Level, BOT” value in the test on Botrytis cinerea is on record as “A/E”. Moreover, the “Disease Control Level, GDM” value with Plasmopora viticola is “A/E”. For the same compound, the MIC in the test with Staphylococcus aureus is > 500 µg/mL. For the same compound, the “Disease Control Level, RB” value in the test with Piricularia oryzae was “A/E”. Further, the “Disease Control Level, TLB” value in the test on Phytophthora infestans (150 ppm, tomato seedlings) is on record as “A/E”.
Consider `CN(C)C(=S)Sc1sn(CCc2ccccc2)c(=O)c1Cl` [Example 3, 4-Chloro-5-(N,N-dimethylthiocarbamoyl)thio-2-phenethyl-4-isothiazolin-3-one], for which the pest or weed control at 300 ppm was 70 to 89% in test [1] (setting [2]); 50% in the test on Botrytis cinerea; 50% with Plasmopora viticola; 50% with Helminthosporium teres; 50% in the test on Erysiphe polygoni; 50% with Piricularia oryzae (setting [3]). In addition, the pest or weed control at 300 ppm in the test with Phytophthora infestans (setting [4]) turned out to be 50%. In addition, the minimal inhibitory concentration (MIC) in the test with Staphylococcus aureus is > 500 µg/mL.
Regarding `Cc1c(SC(=S)N(C)C)sn(CCc2ccccc2)c1=O` [Example 7], the pest or weed control at 38 ppm was 50% in test [1] (setting [2]) and 90 to 96% in the test with Piricularia oryzae (setting [3]). Also, the pest or weed control at 75 ppm in test [1] (setting [2]) is 50%; with Piricularia oryzae (setting [3]), 90 to 96%. Besides, the pest or weed control at 150 ppm in test [1] (setting [2]) was 50%. The pest or weed control at 300 ppm in test [1] (setting [2]) is 97 to 100%; with Botrytis cinerea, 50%; in the test with Plasmopora viticola, 50%; in the test with Helminthosporium teres it was 50%; with Erysiphe polygoni, 50%; in the test on Phytophthora infestans (setting [4]), 50%. Also, in the test on Staphylococcus aureus, the MIC was > 500 µg/mL. Besides, in the test on Piricularia oryzae, the “Disease Control Level, RB” value is reported as “B/E”.
As to `CN(C)C(=S)Sc1cc(=O)n(CCc2ccccc2)s1` [Example 4], the “Disease Control Level, WSR” value in [1] is given as “E/E”. The pest or weed control at 300 ppm in test [1] (setting [2]) was 97 to 100%; with Botrytis cinerea, 90 to 96%; in the test with Plasmopora viticola, 90 to 96%; with Helminthosporium teres, 50%; in the test with Erysiphe polygoni, 50%; with Phytophthora infestans (setting [4]), 50%. Also, the “Disease Control Level, BOT” value with Botrytis cinerea is listed as “A/C”. Besides, the pest or weed control at 38 ppm in the test on Botrytis cinerea was 90 to 96%; in the test on Plasmopora viticola, 90 to 96%; with Piricularia oryzae (setting [3]), 50%. Further, the pest or weed control at 75 ppm in the test on Botrytis cinerea is 90 to 96%; in the test on Plasmopora viticola, 97 to 100%; in the test on Piricularia oryzae (setting [3]), 50%. In addition, the “Disease Control Level, GDM” value in the test on Plasmopora viticola was “A/A”. For the same compound, the MIC in the test on Staphylococcus aureus was > 500 µg/mL. Also, the pest or weed control at 150 ppm in the test on Piricularia oryzae (setting [3]) was in the range of 97 to 100%.
As to `N#Cc1cc(=O)n(CCc2ccccc2)s1` [Example 15, 5-Cyano-2-phenethyl-4-isothiazolin-3-one], the MIC in the test on Staphylococcus aureus was > 500 µg/mL.
`O=c1cc(SC(=S)N(Cc2ccccc2)Cc2ccccc2)sn1CCc1ccccc1` [Example 12, 5-(N,N-Dibenzylthiocarbamoyl)thio-2-phenethyl-4-isothiazolin-3-one]: the pest or weed control at 300 ppm (in test [1] (setting [2]); in the test with Botrytis cinerea; in the test with Plasmopora viticola; in the test on Helminthosporium teres; in the test on Erysiphe polygoni; in the test with Piricularia oryzae (setting [3])) was 50% in each case. The pest or weed control at 300 ppm with Phytophthora infestans (setting [4]) was found to be 50%.
